We go through 63 molecules from PubChem BioAssay AID1195 (EPA DSSTox, 2008).

The data set has as its system human maximum recommended daily dose, FDA database. The experiment in a line: DSSTox (FDAMDD) FDA Maximum (Recommended) Daily Dose Database. To be noted: hits give low values. In outline: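 MRDD values come from clinical trials with daily oral dosing, usually for 3–12 months, for the average adult, in mg/day converted to mg/kg-bw/day assuming 60 kg. Antineoplastic mg/m2 doses are divided by 37. Activity score maps log10(1/MRDD mmol) onto 1–100.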

Where [1] appears, read: TherapeuticCategory: antineoplastic.
Where [2] appears, read: TherapeuticCategory: antibacterial.
The mark [3] stands for this setting: TherapeuticCategory: antidepressant.
The mark [4] stands for this setting: TherapeuticCategory: antihypertensive.
Where [5] appears, read: TherapeuticCategory: diagnostic aid.
The mark [6] stands for this setting: TherapeuticCategory: glucocorticoid.
[7] abbreviates: TherapeuticCategory: antihistaminic.
[8] abbreviates: TherapeuticCategory: anthelmintic.
[9] abbreviates: TherapeuticCategory: antiulcerative.

`CC(=O)O[C@H]1C[C@@H]2CC[C@@H]3[C@H](CC[C@@]4(C)[C@H]3C[C@H](N3CC[N+](C)(C)CC3)[C@@H]4OC(C)=O)[C@@]2(C)C[C@@H]1N1CC[N+](C)(C)CC1`: for the setting “TherapeuticCategory: skeletal muscle relaxant”, the maximum recommended daily dose (mmol/kg-bw/day) is 0.000118.

For the molecule `CC(C)[C@@H](C)/C=C/[C@@H](C)[C@H]1CC[C@H]2/C(=C/C=C3\C[C@@H](O)CC[C@@H]3C)CCC[C@]12C`, under “TherapeuticCategory: regulator”, the maximum recommended daily dose (mmol/kg-bw/day) was 0.000105. As to `CN(N=O)C(=O)N[C@@H]1[C@@H](O)[C@H](O)[C@@H](CO)O[C@@H]1O`, the maximum recommended daily dose (mmol/kg-bw/day) under setting [1] was 0.407. `NC(=O)N1c2ccccc2C=Cc2ccccc21`: the maximum recommended daily dose (mmol/kg-bw/day) (TherapeuticCategory: analgesic, anticonvulsant) was 0.113. Consider `CO/N=C(/C(=O)N[C@@H]1C(=O)N2C(C(=O)OC(C)OC(C)=O)=C(COC(N)=O)CS[C@H]12)c1ccco1` (stereo partly drawn), for which the maximum recommended daily dose (mmol/kg-bw/day) under setting [2] is 0.0327. In the case of `O=C(O)[C@H](O)[C@@H](O)C(=O)O`, where the note is “TherapeuticCategory: none”, the maximum recommended daily dose (mmol/kg-bw/day) is 0.2. With `CCc1nc(N)nc(N)c1-c1ccc(Cl)cc1`, the maximum recommended daily dose (mmol/kg-bw/day) (TherapeuticCategory: antimalarial) is 0.00503.

As to `CN1CCN2c3ccccc3Cc3ccccc3C2C1` (stereo not drawn), the maximum recommended daily dose (mmol/kg-bw/day) under setting [3] is 0.00567. Take `C=CCC1(C(C)CC)C(=O)NC(=O)NC1=O` (stereo not drawn): the maximum recommended daily dose (mmol/kg-bw/day) (TherapeuticCategory: sedative, hypnotic) was 0.0148.

Consider `C[C@@H]1O[C@@]2(CS1)CN1CCC2CC1`, for which the maximum recommended daily dose (mmol/kg-bw/day) (TherapeuticCategory: selective agonist (tear and salivary production)) is 0.00613. On to `NNc1nnc(NN)c2ccccc12`, for which the maximum recommended daily dose (mmol/kg-bw/day) under setting [4] is 0.0175. With `CC(=O)N(CC(O)CO)c1c(I)c(C(=O)NCC(O)CO)c(I)c(C(=O)NCC(O)CO)c1I` (stereo not drawn), under setting [5], the maximum recommended daily dose (mmol/kg-bw/day) was 0.134. In the case of `C#CC(C)(O)CC` (stereo not drawn), the maximum recommended daily dose (mmol/kg-bw/day) (TherapeuticCategory: hypnotic, sedative) was 0.17.

Consider `CN(C)CCCC1(c2ccc(F)cc2)OCc2cc(C#N)ccc21` (stereo not drawn), for which, under setting [3], the maximum recommended daily dose (mmol/kg-bw/day) was 0.00308. Consider `CCC1C(C)=NN=C(c2ccc(OC)c(OC)c2)c2cc(OC)c(OC)cc21` (stereo not drawn), for which, for the setting “TherapeuticCategory: anxiolytic”, the maximum recommended daily dose (mmol/kg-bw/day) was 0.00654. As for `Cc1ncc([N+](=O)[O-])n1CCO`, where the note is “TherapeuticCategory: antiprotozoal”, the maximum recommended daily dose (mmol/kg-bw/day) was 0.195.

As to `C[C@H]1C[C@@H]2[C@H]([C@@H](O)C[C@@]3(C)[C@H]2CC[C@]3(O)C(=O)COC(=O)CCCCCCC(=O)N(C)CCS(=O)(=O)O)[C@@]2(C)C=CC(=O)C=C12`, under setting [6], the maximum recommended daily dose (mmol/kg-bw/day) was 0.0061. Turning to `CO[C@H]1/C=C/O[C@@]2(C)Oc3c(C)c(O)c4c(O)c(c(/C=N/N5CCN(C)CC5)c(O)c4c3C2=O)NC(=O)/C(C)=C\C=C\[C@H](C)[C@H](O)[C@@H](C)[C@@H](O)[C@@H](C)[C@H](OC(C)=O)[C@@H]1C`, under setting [2], the maximum recommended daily dose (mmol/kg-bw/day) is 0.0243. As for `NCc1ccccc1CC(=O)N[C@@H]1C(=O)N2C(C(=O)O)=C(CSc3nnnn3CC(=O)O)CS[C@H]12`, the maximum recommended daily dose (mmol/kg-bw/day) under setting [2] was 0.0641.

In the case of `N[C@@H](C(=O)N[C@@H]1C(=O)N2C(C(=O)O)=C(Cl)CC[C@H]12)c1ccccc1`, under setting [2], the maximum recommended daily dose (mmol/kg-bw/day) is 0.0181. For the molecule `CN(C)CCC(c1ccc(Br)cc1)c1ccccn1` (stereo not drawn), the maximum recommended daily dose (mmol/kg-bw/day) under setting [7] is 0.00125. `O=C(O)COCCN1CCN(C(c2ccccc2)c2ccc(Cl)cc2)CC1` (stereo not drawn): under setting [7], the maximum recommended daily dose (mmol/kg-bw/day) is 0.0432. Consider `NS(=O)(=O)c1cc2c(cc1Cl)NCNS2(=O)=O`, for which the maximum recommended daily dose (mmol/kg-bw/day) (TherapeuticCategory: diuretic) was 0.0112. As to `CC[C@H](C)C(=O)O[C@H]1C[C@H](O)C=C2C=C[C@H](C)[C@H](CC[C@@H](O)C[C@@H](O)CC(=O)O)[C@H]21`, the maximum recommended daily dose (mmol/kg-bw/day) (TherapeuticCategory: antihyperlipoproteinemic) is 0.00157. With `CC(=O)OCC(=O)[C@H]1CC[C@H]2[C@@H]3CCC4=CC(=O)CC[C@]4(C)[C@H]3CC[C@]12C`, the maximum recommended daily dose (mmol/kg-bw/day) (TherapeuticCategory: mineralcorticoid) was 0.00448. On to `CC[N+](C)(C)Cc1ccccc1Br`, for which the maximum recommended daily dose (mmol/kg-bw/day) (TherapeuticCategory: antiadrenergic, cardiac depressant) is 0.0121. On to `C#C[C@]1(O)CC[C@H]2[C@@H]3CCc4cc(O)ccc4[C@H]3CC[C@@]21C`, for which the maximum recommended daily dose (mmol/kg-bw/day) (TherapeuticCategory: estrogen) was 1.69e-06. With `CC[N+](CC)(CC)CCC(O)(c1ccccc1)C1CCCCC1` (stereo not drawn), the maximum recommended daily dose (mmol/kg-bw/day) (TherapeuticCategory: anticholinergic) is 0.00941. Regarding `COc1cccc2c1C(=O)c1c(O)c3c(c(O)c1C2=O)C[C@@](O)(C(=O)CO)C[C@@H]3O[C@H]1C[C@H](N)[C@H](O)[C@H](C)O1`, under setting [1], the maximum recommended daily dose (mmol/kg-bw/day) is 0.00447. On to `Nc1nc2c(ncn2COCCO)c(=O)[nH]1`, for which the maximum recommended daily dose (mmol/kg-bw/day) (TherapeuticCategory: antiviral) was 0.0591.

As for `NS(=O)(=O)c1ccc(N2CCCCS2(=O)=O)cc1`, the maximum recommended daily dose (mmol/kg-bw/day) (TherapeuticCategory: anticonvulsant) is 0.0344.

On to `NCCCNCCSP(=O)(O)O`, for which the maximum recommended daily dose (mmol/kg-bw/day) (TherapeuticCategory: mucolytic) was 0.115. As for `CCN1/C(=C/C=C/C=C/c2sc3ccccc3[n+]2CC)Sc2ccccc21`, the maximum recommended daily dose (mmol/kg-bw/day) under setting [8] is 0.00642.

As for `CCCOC(=O)Cn1cc(I)c(=O)c(I)c1`, the maximum recommended daily dose (mmol/kg-bw/day) under setting [5] was 0.224. Turning to `CN1CCN(CC(=O)N2c3ccccc3C(=O)Nc3cccnc32)CC1`, the maximum recommended daily dose (mmol/kg-bw/day) under setting [9] was 0.00711. Turning to `c1ccc(C2(c3ccccc3)CC2C2=NCCN2)cc1` (stereo not drawn), where the note is “TherapeuticCategory: antiarrhythmic”, the maximum recommended daily dose (mmol/kg-bw/day) is 0.0248.

On to `N#CC(CCN1CCC(C(=O)O)(c2ccccc2)CC1)(c1ccccc1)c1ccccc1`, for which the maximum recommended daily dose (mmol/kg-bw/day) (TherapeuticCategory: antiperistaltic, antidiarrheal) was 0.000313. Consider `CCCCCCCCCCC[C@@H](C[C@@H]1OC(=O)[C@H]1CCCCCC)OC(=O)C(CC(C)C)NC=O` (stereo partly drawn), for which the maximum recommended daily dose (mmol/kg-bw/day) (TherapeuticCategory: antiobesity) was 0.0121. As to `O=C(O)c1cc(=O)c2c(OCC(O)COc3cccc4oc(C(=O)O)cc(=O)c34)cccc2o1`, the maximum recommended daily dose (mmol/kg-bw/day) (TherapeuticCategory: prophylactic antiasthmatic, antiallergic) was 0.0284. As for `CC(C)(C)NCC(O)c1ccc(O)c(CO)c1` (stereo not drawn), the maximum recommended daily dose (mmol/kg-bw/day) (TherapeuticCategory: bronchodilator, tocolytic) was 0.00223. On to `O=C1Cc2cc(CCN3CCN(c4nsc5ccccc45)CC3)c(Cl)cc2N1`, for which the maximum recommended daily dose (mmol/kg-bw/day) (TherapeuticCategory: antipsychotic, dopamine receptor antagonist, seratonin receptor antagonist) was 0.00647. For the molecule `NC(CO)C(=O)NNCc1ccc(O)c(O)c1O` (stereo not drawn), the maximum recommended daily dose (mmol/kg-bw/day) (TherapeuticCategory: antiparkinsonian) is 0.0129. Turning to `CCCc1c2oc(C(=O)O)cc(=O)c2cc2c(=O)cc(C(=O)O)n(CC)c12`, the maximum recommended daily dose (mmol/kg-bw/day) (TherapeuticCategory: antiallergic, antiasthmatic) was 0.000627. As for `CCCC(=O)c1ccc2c(c1)N(CCCN1CCN(C)CC1)c1ccccc1S2`, under “TherapeuticCategory: antipsychotic”, the maximum recommended daily dose (mmol/kg-bw/day) was 0.00408.

`Cc1ccc(-c2cc(C(F)(F)F)nn2-c2ccc(S(N)(=O)=O)cc2)cc1`: the maximum recommended daily dose (mmol/kg-bw/day) (TherapeuticCategory: anti inflammatory, antiarthritic) was 0.0175.

Regarding `CC1(C)[C@@H](OC(=O)CCC(=O)O)CC[C@]2(C)[C@H]3C(=O)C=C4[C@@H]5C[C@@](C)(C(=O)O)CC[C@]5(C)CC[C@@]4(C)[C@]3(C)CC[C@@H]12`, the maximum recommended daily dose (mmol/kg-bw/day) under setting [9] was 0.00876. Take `CC1C(c2ccccc2)OCCN1C` (stereo not drawn): the maximum recommended daily dose (mmol/kg-bw/day) (TherapeuticCategory: anorexic) is 0.0183. Take `NC(=O)C1CCN(CCCN2c3ccccc3Sc3ccc(Cl)cc32)CC1`: where the note is “TherapeuticCategory: antiemetic”, the maximum recommended daily dose (mmol/kg-bw/day) was 0.000622. As for `BrC(Br)Br`, the maximum recommended daily dose (mmol/kg-bw/day) (TherapeuticCategory: sedative, hypnotic, antitussive) is 0.0989. For `COc1c(C)c2c(c(O)c1C/C=C(\C)CCC(=O)OCCN1CCOCC1)C(=O)OC2`, under setting [1], the maximum recommended daily dose (mmol/kg-bw/day) is 0.277. `O=C1C(=O)c2ccccc2C(O)=C1C1CCC(c2ccc(Cl)cc2)CC1` (stereo not drawn): the maximum recommended daily dose (mmol/kg-bw/day) (TherapeuticCategory: antiprotozoal, antimalarial, antifungal) is 0.102. Regarding `Cc1onc(-c2ccccc2Cl)c1C(=O)N[C@@H]1C(=O)N2[C@@H]1SC(C)(C)[C@@H]2C(=O)O`, under setting [2], the maximum recommended daily dose (mmol/kg-bw/day) is 0.0764. `CCNC(C)Cc1cccc(C(F)(F)F)c1` (stereo not drawn): the maximum recommended daily dose (mmol/kg-bw/day) (TherapeuticCategory: anorexic) was 0.00865. With `OC[C@H]1O[C@@H](O[C@H]2[C@H](O)[C@@H](O)[C@H](O)O[C@@H]2CO)[C@H](O)[C@@H](O)[C@H]1O`, the maximum recommended daily dose (mmol/kg-bw/day) (TherapeuticCategory: none) was 0.292. Regarding `CC(C)(C)c1nnc(NS(=O)(=O)c2ccccc2)s1`, the maximum recommended daily dose (mmol/kg-bw/day) (TherapeuticCategory: antidiabetic) was 0.042.

As for `CCCCc1ncc(/C=C(\Cc2cccs2)C(=O)O)n1Cc1ccc(C(=O)O)cc1`, the maximum recommended daily dose (mmol/kg-bw/day) under setting [4] is 0.0313. With `CC1CCCC(C)N1NC(=O)c1ccc(Cl)c(S(N)(=O)=O)c1` (stereo not drawn), the maximum recommended daily dose (mmol/kg-bw/day) (TherapeuticCategory: antihypertensive, diuretic) was 0.00289.

As for `CC(C)Nc1cccnc1N1CCN(C(=O)c2cc3cc(NS(C)(=O)=O)ccc3[nH]2)CC1`, the maximum recommended daily dose (mmol/kg-bw/day) (TherapeuticCategory: antiviral) was 0.0146.

For the molecule `CN(C)[C@@H]1C(=O)C(C(N)=O)=C(O)[C@@]2(O)C(=O)C3=C(O)c4c(O)ccc(Cl)c4[C@@H](O)[C@H]3C[C@@H]12`, the maximum recommended daily dose (mmol/kg-bw/day) under setting [2] was 0.0323.

Turning to `CC(=O)OCC(=O)[C@@]1(O)[C@@H](C)C[C@H]2[C@@H]3CCC4=CC(=O)C=C[C@]4(C)[C@@]3(F)[C@@H](O)C[C@@]21C`, the maximum recommended daily dose (mmol/kg-bw/day) under setting [6] is 0.000345. Consider `O=c1oc2ccccc2c(O)c1Cc1c(O)c2ccccc2oc1=O`, for which the maximum recommended daily dose (mmol/kg-bw/day) (TherapeuticCategory: anticoagulant) is 0.0149. In the case of `CC(C)COC(=O)c1ccc(N)cc1`, the maximum recommended daily dose (mmol/kg-bw/day) (TherapeuticCategory: topical anesthetic) was 0.0345. As to `Cc1cc(/C=C/c2ccc3cc(N(C)C)ccc3[n+]2C)c(C)n1-c1ccccc1`, the maximum recommended daily dose (mmol/kg-bw/day) under setting [8] was 0.00434.
